From ChEMBL document CHEMBL4834485, “Designed, synthesized and biological evaluation of proteolysis targeting chimeras (PROTACs) as AR degraders for prostate cancer treatment” (Bioorg Med Chem, 2021) come the findings set out here.

Data set [1] has as its target T1, Protein cereblon/Androgen receptor (Homo sapiens) (UniProt P10275+Q96SW2). Nature of the data set: PROTAC activity at CRBN/AR in human LNCaP cells assessed as induction of AR degradation by measuring downregulation of AR protein expression measured after 24 hrs by western blot assay. In kind it is cell-based. The conditions noted are these: dose 10-30 µM. (In western blotting, separated proteins are transferred to a membrane and probed.)

In data set [2] the target is T1, Protein cereblon/Androgen receptor (Homo sapiens). The data set can be described thus: PROTAC activity at CRBN/AR in human LNCaP cells assessed as induction of AR degradation by measuring downregulation of AR protein expression at 30 uM measured after 24 hrs by western blot assay. In kind it is cell-based.
Data set [3] can be described thus: Drug uptake in AR-negative human PC-3 cells assessed as increase in fluorescence intensity at 10 uM incubated for 24 hrs by DAPI staining based confocal laser scanning microscopy. The format is ADME, cell-based. The conditions noted are these: pc-3, 24 h.
A short description of data set [4]: Drug uptake in AR-positive human LNCaP cells assessed as increase in fluorescence intensity at 10 uM incubated for 24 hrs by DAPI staining based confocal laser scanning microscopy. The format is ADME.

The source made the active and inactive calls. The calls are words filed in the database; no cut-off is given here.

T1 sequence (P10275 whole entry, looked up): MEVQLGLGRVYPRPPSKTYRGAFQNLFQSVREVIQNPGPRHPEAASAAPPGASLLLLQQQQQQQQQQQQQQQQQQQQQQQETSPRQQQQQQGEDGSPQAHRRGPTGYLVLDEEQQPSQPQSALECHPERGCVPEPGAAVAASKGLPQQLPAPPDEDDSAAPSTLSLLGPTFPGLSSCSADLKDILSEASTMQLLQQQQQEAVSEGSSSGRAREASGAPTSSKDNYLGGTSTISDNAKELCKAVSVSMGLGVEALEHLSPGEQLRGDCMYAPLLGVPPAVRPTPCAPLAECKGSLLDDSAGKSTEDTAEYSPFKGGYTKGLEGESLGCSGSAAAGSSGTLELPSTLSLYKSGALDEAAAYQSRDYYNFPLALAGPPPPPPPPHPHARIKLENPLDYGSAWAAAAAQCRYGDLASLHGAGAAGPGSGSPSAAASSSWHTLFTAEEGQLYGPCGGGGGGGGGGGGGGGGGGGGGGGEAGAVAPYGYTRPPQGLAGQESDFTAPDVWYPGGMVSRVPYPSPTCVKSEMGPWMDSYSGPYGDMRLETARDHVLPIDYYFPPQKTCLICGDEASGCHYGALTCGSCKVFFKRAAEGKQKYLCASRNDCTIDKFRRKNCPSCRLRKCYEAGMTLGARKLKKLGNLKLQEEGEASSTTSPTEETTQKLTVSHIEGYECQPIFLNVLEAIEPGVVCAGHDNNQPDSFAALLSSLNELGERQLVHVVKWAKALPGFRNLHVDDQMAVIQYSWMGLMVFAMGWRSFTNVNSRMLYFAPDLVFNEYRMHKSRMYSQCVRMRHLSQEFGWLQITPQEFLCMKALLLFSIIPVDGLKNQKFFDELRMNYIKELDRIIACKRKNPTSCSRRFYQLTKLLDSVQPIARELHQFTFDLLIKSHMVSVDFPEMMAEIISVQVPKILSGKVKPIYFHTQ
T1 sequence (Q96SW2 whole entry, looked up): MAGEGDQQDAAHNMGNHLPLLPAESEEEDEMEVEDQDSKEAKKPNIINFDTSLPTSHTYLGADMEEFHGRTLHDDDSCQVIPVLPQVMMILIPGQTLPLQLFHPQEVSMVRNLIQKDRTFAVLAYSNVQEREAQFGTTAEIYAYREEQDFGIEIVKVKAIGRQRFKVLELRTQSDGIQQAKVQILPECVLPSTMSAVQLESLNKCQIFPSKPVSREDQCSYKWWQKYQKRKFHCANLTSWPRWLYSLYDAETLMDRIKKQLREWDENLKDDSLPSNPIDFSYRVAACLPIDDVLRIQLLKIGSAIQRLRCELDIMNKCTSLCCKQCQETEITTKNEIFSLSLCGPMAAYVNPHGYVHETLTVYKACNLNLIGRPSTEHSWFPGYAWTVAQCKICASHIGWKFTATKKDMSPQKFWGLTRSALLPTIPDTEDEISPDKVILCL

Consider `CC1(C)C(=O)N(c2ccc(C#N)c(C(F)(F)F)c2)C(=S)N1CCCn1cc(COCCOCCOc2cccc3c2C(=O)N(C2CCC(=O)NC2=O)C3=O)nn1` (centres undefined), for which the Activity result in data set [1] was “Dose-Dependent Effect”. The result in data set [2] was Active.
Take `Nc1cccc2c1C(=O)N(C1CCC(=O)NC1=O)C2=O` (centres undefined) [POMALIDOMIDE]: the Drug uptake result in data set [3] and in data set [4] was “Active” each time.
